Measurements as given in US5280015A, “2-substituted adenosines and 2-substituted adenosine 5'-carboxamides” (priority 1990, dated 1994).
Values joined by “and” are separate entries in the source; they are usually repeats but may differ in a detail not shown here. Equal entries are not always repeated. Structures can show the parent of a compound that is named as a salt. Where two headings read alike, the source gives them in different places.

Columns and labels:
[1] = system: locomotor activity in NIH mice; assay: Locomotor depression by A2 adenosine agonists in mice (Digiscan activity monitor); type: in vivo, mouse; settings: for reversal of APEC locomotor depression by antagonist: antagonist injected before APEC, 8-cyclopentyltheophylline 10 mg/kg; for ED50: Mus musculus, read-out: ED50, locomotor depression; for ED50 / locomotor depression (% decrease in horizontal activity from vehicle control): ip
[2] = molecular target: T1, A2-adenosine receptors (Rattus norvegicus, UniProt P30543); assay: Inhibition of binding of [3H]CGS21680 to A2-adenosine receptors in rat striatal membranes
T1 construct: rat striatal membranes; from tissue; host or cells: rat striatal membranes
T1 sequence (P30543 whole entry): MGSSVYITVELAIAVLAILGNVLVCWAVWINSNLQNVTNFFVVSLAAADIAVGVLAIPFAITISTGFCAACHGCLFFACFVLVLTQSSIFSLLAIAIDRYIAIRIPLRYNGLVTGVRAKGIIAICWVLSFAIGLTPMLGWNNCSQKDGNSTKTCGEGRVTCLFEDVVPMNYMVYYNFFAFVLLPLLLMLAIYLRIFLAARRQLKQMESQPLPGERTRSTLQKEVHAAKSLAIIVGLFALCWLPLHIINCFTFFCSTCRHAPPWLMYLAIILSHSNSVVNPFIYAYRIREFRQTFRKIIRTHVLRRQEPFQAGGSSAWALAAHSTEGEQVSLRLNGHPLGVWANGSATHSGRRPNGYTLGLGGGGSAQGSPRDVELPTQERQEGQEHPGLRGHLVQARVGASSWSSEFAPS
Procedure: (§1) Stock solutions of representative compounds of the present invention in the millimolar concentration range in dimethylsulfoxide were prepared for the binding assays. […] Protein was determined using the BCA (based on the complex with cuprous ions and bicinchoninic acid) protein assay reagents purchased from Pierce Chemical Co., Rockford, Ill.
The membrane suspension was then centrifuged at 37,000×g for 20 min at 4° C. The pellet was resuspended in buffer containing 2 IU/ml adenosine deaminase, Type VI from calf intestinal mucosa (Sigma, St. Louis, Mo.) to 20 mg/ml original tissue weight and incubated at 37° C. for 30 min. The membrane homogenate was recentrifuged as before, and the pellet was stored frozen at -70° C. until use.
For competitive binding assays using [^3 H]CGS21680, a volume of 1 ml was used in each 13×100 mm glass tube. […] The mixture was incubated with shaking for 90 min at 24° C. The samples were filtered on a Brandel Cell Harvester (Brandel, Gaithersburg, Md.) with Whatman GF/B filters, and washed rapidly twice with 5 ml of ice cold 50 mM Tris, pH 7.4. Each filter disc was added to 4 ml of scintillation fluid, vortexed, and counted after 6 hours.

[3] = molecular target: T1, A2-adenosine receptors; assay: Inhibition of binding of [3H]NECA to A2-adenosine receptors in rat striatal membranes
Procedure: as §1
N^6 -Cyclopentyladenosine was present at 50 nM to inhibit binding of the ligand at A1 -adenosine receptors.

[4] = molecular target: A2 adenosine receptors (Bos taurus, UniProt E1BKU0); assay: Competitive binding assay in bovine brain using 125I-PAPA-APEC (striatal membranes); parameters: Bovine striatal membranes; from tissue; host or cells: bovine (calf) striatal membranes
Sequence of A2 adenosine receptors (E1BKU0 1-401): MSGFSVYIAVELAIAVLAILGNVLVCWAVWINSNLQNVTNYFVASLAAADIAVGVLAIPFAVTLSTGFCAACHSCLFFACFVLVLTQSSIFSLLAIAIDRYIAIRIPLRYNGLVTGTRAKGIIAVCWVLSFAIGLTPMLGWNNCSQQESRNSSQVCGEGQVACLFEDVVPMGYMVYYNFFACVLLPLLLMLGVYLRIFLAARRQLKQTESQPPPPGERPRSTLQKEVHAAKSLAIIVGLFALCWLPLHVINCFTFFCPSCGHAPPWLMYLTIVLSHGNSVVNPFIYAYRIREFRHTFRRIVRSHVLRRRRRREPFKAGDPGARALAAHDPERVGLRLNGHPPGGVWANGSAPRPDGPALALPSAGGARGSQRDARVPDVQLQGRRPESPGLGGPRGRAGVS
Procedure: (§2) The filters were washed with three×3 ml aliquots of pH 7.2 buffer containing 50 mM HEPES, 10 mM Mg^+2, and 0.05% CHAPS. The filters were placed in polypropylene tubes and counted in a Packard gamma counter.

[5] = system: A2-adenosine receptors; assay: as above; settings: for Ki (A1)/K1 (A2): ratio of Ki at A1-receptors (rat) versus Ki in the 125I-PAPA-APEC assay (bovine)
Procedure: as §2

[6] = molecular target: T2, A1-adenosine receptors (Rattus norvegicus, UniProt P25099); assay: Competitive binding assay at A1-adenosine receptors, rat cerebral cortex membranes ([3H]PIA or [3H]CHA)
T2 construct: rat cerebral cortex membranes; from tissue; host or cells: rat cerebral cortex membranes
T2 sequence (P25099 1-326): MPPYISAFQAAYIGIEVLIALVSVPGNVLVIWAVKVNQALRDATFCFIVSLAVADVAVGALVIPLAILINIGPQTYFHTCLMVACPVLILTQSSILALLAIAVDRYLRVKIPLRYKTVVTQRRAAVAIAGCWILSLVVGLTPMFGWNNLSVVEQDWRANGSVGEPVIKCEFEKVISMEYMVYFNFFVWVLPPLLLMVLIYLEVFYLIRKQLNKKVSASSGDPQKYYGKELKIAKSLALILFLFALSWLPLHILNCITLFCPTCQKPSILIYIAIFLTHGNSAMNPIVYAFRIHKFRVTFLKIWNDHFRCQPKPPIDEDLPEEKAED

[7] = system: human platelets; assay: Increase in cyclic AMP in human platelets; type: cell-based; settings: for activation at 1 µM: Platelet, read-out: increase in the level of cyclic AMP
[8] = read-out: Ki, inhibition of binding of [3H]CGS21680 at A2-receptors
[9] = bovine striatum; 11, 12 and 14: apparent Ki; read-out: Ki, inhibition of binding of 125I-PAPA-APEC at A2-receptors
[10] = rat, [3H]N6-cyclohexyladenosine (footnote c), read-out: Ki, inhibition of binding at A1-receptors using [3H]N6-cyclohexyladenosine
[11] = rat, [3H]PIA, read-out: Ki, inhibition of binding of [3H]PIA at A1-receptors
[12] = bovine brain A2; relative to compounds with Ki less than 10 nM
[13] = rat striatum, 11, 12 and 14: apparent Ki, read-out: Ki, inhibition of binding of [3H]CGS21680 at A2-receptors
[14] = Ki, inhibition of binding of 125I-PAPA-APEC at A2-receptors, bovine striatum; 11, 12 and 14: apparent Ki

SMILES | Ki [2, 8] [nM] | Ki [4, 9] | Ki (A1)/K1 (A2) [5] | Ki [6, 11] [nM] | other results
CCCn1c(=O)c2[nH]c(C3CCCC3)nc2n(CCC)c1=S [8-cyclopentyl-1,3-dipropyl-2-thioxanthine] | – | – | – | – | reversal of APEC locomotor depression by antagonist ([1]; mice): not
Cn1c(=O)c2[nH]c(C3CCCC3)nc2n(C)c1=O [8-cyclopentyltheophylline] | – | – | – | – | reversal of APEC locomotor depression by antagonist ([1]; mice): not
NCCNC(=O)Cc1ccc(NC(=O)Cc2ccc(Nc3ncnc4c3ncn4[C@@H]3O[C@H](CO)[C@@H](O)[C@H]3O)cc2)cc1 [ADAC, reference compound] | – | – | – | – | Ki [2]: 218 ± 28 nM; Ki [3]: 210 nM
OC[C@H]1O[C@@H](n2cnc3c(NC4CCCCC4)ncnc32)[C@H](O)[C@@H]1O [CHA, N^6 -cyclohexyladenosine] | – | – | – | – | ED50 ([1]; mice, i.p., from dose response curves): 0.06 mg/kg; reversal of agonist-elicited locomotor depression by A1-selective antagonists ([1]; mice, agonist with A1-selective antagonists): reversed by A1 -selective antagonists
CCNC(=O)[C@H]1O[C@@H](n2cnc3c(N)nc(NCCc4ccc(CCC(=O)OC)cc4)nc32)[C@H](O)[C@@H]1O [Compound 2] | 5 ± 2 | < 10 nM and 6.1 nM | 370 | – | Ki [3]: 17.5 ± 1.6 nM; Ki [6, 10]: 2260 ± 440 nM
CCNC(=O)[C@H]1O[C@@H](n2cnc3c(N)nc(NCCc4ccc(CCC(=O)NCCN)cc4)nc32)[C@H](O)[C@@H]1O [Compound 3] | 12 ± 3 | < 10 nM and 6.1 nM | 16 | 235 ± 54 | Ki ([3]; read-out: Ki, inhibition of binding of [3H]NECA at A2-receptors, rat striatum, 11, 12 and 14: apparent Ki): 5.73 ± 0.52 nM; ED50 [1]: 0.016 mg/kg; locomotor depression ([1]; mice, i.p., horizontal activity and total distance traveled): potent locomotor depressant in mice in a dose-dependent manner
CCNC(=O)[C@H]1O[C@@H](n2cnc3c(N)nc(NCCc4ccc(CCC(=O)NCCNC(=O)CCc5ccc(O)cc5)cc4)nc32)[C@H](O)[C@@H]1O [Compound 4] | 13 ± 4 | 13.2 ± 1.5 nM | 72 | – | locomotor depression (% decrease in horizontal activity from vehicle control) ([1]; mouse, in vivo): 44±7%; Ki [6, 10]: 950 ± 100 nM
CCNC(=O)[C@H]1O[C@@H](n2cnc3c(N)nc(NCCc4ccc(CCC(=O)NCCNC(=O)Cc5cccs5)cc4)nc32)[C@H](O)[C@@H]1O [Compound 5] | 15 ± 1 | 21.3 ± 7.9 nM | 66 | – | locomotor depression (% decrease in horizontal activity from vehicle control) ([1]; mouse, in vivo): 49±9%; Ki [6, 10]: 1400 ± 100 nM
CCNC(=O)[C@H]1O[C@@H](n2cnc3c(N)nc(NCCc4ccc(CCC(=O)NCCNC(=O)Cc5ccc(N)cc5)cc4)nc32)[C@H](O)[C@@H]1O [Compound 6] | 28 ± 7 | 43 ± 14 nM | 31 | 1340 | potency in displacing 125I-PAPA-APEC binding [4, 12]: less potent; activation at 1 µM ([7]; human platelets, 10^-6 M): 40%; increase in cyclic AMP ([7]; human platelets, 1 nM to 10 μM): dose dependent increase in cyclic AMP
CCNC(=O)[C@H]1O[C@@H](n2cnc3c(N)nc(NCCc4ccc(CCC(=O)NCCNC(=S)Nc5cccc(N=C=S)c5)cc4)nc32)[C@H](O)[C@@H]1O [Compound 11] | – | – | 11 | – | Ki [2]: 22 ± 7 nM; Ki [4, 14]: < 10 nM and 6.2 nM; Ki [3]: 2.82 ± 0.38 nM; Ki [6]: 69.7 ± 7.9 nM
CCNC(=O)[C@H]1O[C@@H](n2cnc3c(N)nc(NCCc4ccc(CCC(=O)NCCNC(=S)Nc5ccc(N=C=S)cc5)cc4)nc32)[C@H](O)[C@@H]1O [Compound 12] | – | – | 39 | – | Ki [2]: 35 ± 10 nM; Ki [4, 14]: < 10 nM and 7.1 nM; Ki [6]: 276 ± 75 nM
CCNC(=O)[C@H]1O[C@@H](n2cnc3c(N)nc(NCCc4ccc(CCC(=O)NCCNC(=S)NC5CC(C)(C)N([O])C(C)(C)C5)cc4)nc32)[C@H](O)[C@@H]1O [Compound 15] | – | – | – | – | Ki ([2]; read-out: Ki, inhibition of binding of [3H]CGS21680 at A2-receptors, rat striatum, 11, 12 and 14: apparent Ki): 27 ± 3 nM; Ki ([4]; read-out: Ki, inhibition of binding of 125I-PAPA-APEC at A2-receptors; bovine striatum; 11, 12 and 14: apparent Ki): 14.8 ± 3.6 nM; Ki ([6]; read-out: Ki, inhibition of binding at A1-receptors using [3H]N6-cyclohexyladenosine, rat, [3H]N6-cyclohexyladenosine (footnote c)): 177 ± 38 nM
CCNC(=O)[C@H]1O[C@@H](n2cnc3c(N)ncnc32)[C@H](O)[C@@H]1O [NECA, 5'-N-ethylcarboxamidoadenosine, reference compound] | – | – | – | – | ED50 [1]: 0.002 mg/kg; activation at 1 µM ([7]; Homo sapiens): 35%
Cn1c(=O)c2[nH]cnc2n(C)c1=O [theophylline] | – | – | – | – | total distance traveled restored, % of control ([1]; antagonist 10 mg/kg, at the ED50 dose of APEC, mice): 95±12 % of control; reversal of APEC locomotor depression by antagonist ([1]; mice): reversible by theophylline

Further lines, with some results ahead:

Ki [2, 8] [nM] | Ki [4, 9] | Ki (A1)/K1 (A2) [5] | Ki [6, 11] [nM] | SMILES | other results
37 ± 5 | < 10 nM and 6.2 nM | 45 | 278 ± 18.7 | CCNC(=O)[C@H]1O[C@@H](n2cnc3c(N)nc(NCCc4ccc(CCC(=O)NCCNC(=O)Cc5ccc(NC(=O)OCc6ccccc6)cc5)cc4)nc32)[C@H](O)[C@@H]1O [Compound 7] | Ki [3]: 5.59 ± 0.99 nM
– | 43.6 ± 5.2 nM | 31 | 1340 ± 28 | CCNC(=O)[C@H]1O[C@@H](n2cnc3c(N)nc(NCCc4ccc(CCC(=O)NCCNC(=O)c5cccc(N)c5)cc4)nc32)[C@H](O)[C@@H]1O [Compound 8] | Ki [2, 13]: 16.5 ± 2.8 nM; potency in displacing 125I-PAPA-APEC binding [4, 12]: less potent
12 ± 2 | < 10 nM and 8.7 nM | 78 | – | CCNC(=O)[C@H]1O[C@@H](n2cnc3c(N)nc(NCCc4ccc(CCC(=O)NCCNC(=O)c5cccc(NC(=O)OCc6ccccc6)c5)cc4)nc32)[C@H](O)[C@@H]1O [Compound 9] | Ki [6, 10]: 680 ± 110 nM
55 ± 30 | 14.3 ± 3.3 nM | > 350 | – | CCNC(=O)[C@H]1O[C@@H](n2cnc3c(N)nc(NCCc4ccc(CCC(=O)NCCNC(=O)CCCC[C@@H]5SC[C@@H]6NC(=O)N[C@@H]65)cc4)nc32)[C@H](O)[C@@H]1O [Compound 10] | Ki [6, 10]: > 5000 nM
– | 10.9 ± 2.3 nM | 347 | 3780 ± 800 | CCNC(=O)[C@H]1O[C@@H](n2cnc3c(N)nc(NCCc4ccc(CCC(=O)NCCNC(=S)Nc5ccc(S(=O)(=O)O)cc5)cc4)nc32)[C@H](O)[C@@H]1O [Compound 13, 2-[4-[2-[2-[4-(Sulfophenylthioureidyl)]-ethylaminocarbonyl]ethyl]phenyl]ethylamino]-5'-N-ethylcarboxamidoadenosine sodium salt] | Ki [2, 13]: 26 ± 10 nM; selectivity for A2 receptors ([5]; A2 versus A1): more than 200 fold; locomotor depression (% decrease in horizontal activity from vehicle control) ([1]; mouse, in vivo): 41±5%
69.7 | 15.8 ± 4.8 nM | 125 | 1980 ± 102 | CCNC(=O)[C@H]1O[C@@H](n2cnc3c(N)nc(NCCc4ccc(CCC(=O)NCCNC(=O)CBr)cc4)nc32)[C@H](O)[C@@H]1O [Compound 14] | –
18.9 ± 4.9 | 25.4 ± 7.6 nM | 57 | 1450 ± 67 | CCNC(=O)[C@H]1O[C@@H](n2cnc3c(N)nc(NCCc4ccc(CCC(=O)NCCCCNC(=O)c5ccc(CF)cc5)cc4)nc32)[C@H](O)[C@@H]1O [Compound 16] | potency in displacing 125I-PAPA-APEC binding [4, 12]: less potent; locomotor depression (% decrease in horizontal activity from vehicle control) ([1]; […]): 50±4%
– | 31.6 ± 1.3 nM | – | – | CCNC(=O)[C@H]1O[C@@H](n2cnc3c(N)nc(NCCc4ccc(CCC(=O)NCCNc5ccc([N+](=O)[O-])c6nonc56)cc4)nc32)[C@H](O)[C@@H]1O [Compound 17] | affinity at A2-adenosine receptors ([5]; fluorescent probes, derivatives in general): high affinity
